Measurements: patent US20050164951A1, “Inhibitors for the soluble epoxide hydrolase” (The Regents of the University of California, priority 2003, published 2005)
Read-outs that look alike come from different tables or passages of the source. Blank lines part the entries; values can stand above or below the compound they belong to.

Key:
[1] = biological target: T1, mouse sEH (Mus musculus, UniProt P34914); assay: Inhibition of recombinant mouse sEH, IC50 assay with 4-nitrophenyl-trans-2,3-epoxy-3-phenylpropyl carbonate as substrate; type: biochemical; settings: for inhibition of sEH: Example 21
T1 construct: made in house; host or cells: baculovirus expression system
T1 sequence (P34914 1-554): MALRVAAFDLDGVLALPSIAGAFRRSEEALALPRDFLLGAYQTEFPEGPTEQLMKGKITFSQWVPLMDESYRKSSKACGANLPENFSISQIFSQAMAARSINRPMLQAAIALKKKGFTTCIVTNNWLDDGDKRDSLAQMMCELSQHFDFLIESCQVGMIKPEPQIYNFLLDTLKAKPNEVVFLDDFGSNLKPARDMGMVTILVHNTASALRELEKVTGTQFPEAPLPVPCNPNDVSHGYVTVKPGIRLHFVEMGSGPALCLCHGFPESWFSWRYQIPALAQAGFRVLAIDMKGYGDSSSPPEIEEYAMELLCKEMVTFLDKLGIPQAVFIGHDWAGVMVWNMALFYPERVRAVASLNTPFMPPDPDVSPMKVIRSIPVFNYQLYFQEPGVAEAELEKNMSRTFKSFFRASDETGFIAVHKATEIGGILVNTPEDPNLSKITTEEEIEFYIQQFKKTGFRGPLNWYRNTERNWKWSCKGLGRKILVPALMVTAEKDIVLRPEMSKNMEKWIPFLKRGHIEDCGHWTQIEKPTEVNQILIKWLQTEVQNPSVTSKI
Method: (§1) Assays were performed in triplicate. […] The curve was generated from at least three separate runs, each in triplicate, to obtain the standard deviation (SD) given in Table 1 thru Table 4.

[2] = biological target: T2, human sEH (Homo sapiens, UniProt P34913); assay: Inhibition of recombinant human sEH, IC50 assay with 4-nitrophenyl-trans-2,3-epoxy-3-phenylpropyl carbonate as substrate; type: biochemical; settings: for IC90: 0.24 μM enzyme
T2 construct: made in house; host or cells: baculovirus expression system
T2 sequence (P34913 1-555): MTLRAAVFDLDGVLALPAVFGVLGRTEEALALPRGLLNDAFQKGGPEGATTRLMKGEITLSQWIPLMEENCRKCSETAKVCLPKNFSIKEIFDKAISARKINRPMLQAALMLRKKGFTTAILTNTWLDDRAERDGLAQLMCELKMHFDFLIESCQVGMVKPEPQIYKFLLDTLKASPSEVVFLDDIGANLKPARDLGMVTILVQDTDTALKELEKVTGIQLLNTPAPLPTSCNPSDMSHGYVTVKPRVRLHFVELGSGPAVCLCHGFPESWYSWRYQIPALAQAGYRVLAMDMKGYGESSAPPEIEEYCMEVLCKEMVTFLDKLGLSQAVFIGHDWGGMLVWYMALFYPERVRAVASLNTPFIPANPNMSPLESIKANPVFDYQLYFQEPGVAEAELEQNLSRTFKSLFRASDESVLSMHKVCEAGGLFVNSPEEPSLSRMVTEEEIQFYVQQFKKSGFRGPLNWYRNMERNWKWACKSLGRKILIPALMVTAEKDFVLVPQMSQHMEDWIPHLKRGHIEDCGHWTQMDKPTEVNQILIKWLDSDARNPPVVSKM
Method: as §1

[3] = Table 6, established protocols, read-out: IC50 (μM) Mouse sEH
[4] = Tables 17a and b, read-out: IC50 (μM) Mouse sEH
[5] = Tables 17a and b, read-out: IC50 (μM) Human sEH
[6] = Table 7, established protocols, read-out: IC50 (μM) Mouse sEH
[7] = Table 7, established protocols, read-out: IC50 (μM) Human sEH
[8] = Table 3, […] enzyme, 5 min preincubation, pH 7.4, 30° C., means ± SD, read-out: IC50 (μM) Mouse sEH
[9] = Table 5, 0.12 μM enzyme, 5 min preincubation, pH 7.4, 30° C., means ± SD
[10] = Table 5, […] enzyme, 5 min preincubation, pH 7.4, 30° C., means ± SD, read-out: Mouse sEH IC50
[11] = Table 5, 5 min preincubation, pH 7.4, 30° C., means ± SD
[12] = Table 5, […] enzyme, 5 min preincubation, pH 7.4, 30° C., means ± SD, read-out: Human sEH IC50

IC50 ([1]; Table 9, established protocols, read-out: IC50 (μM) Mouse sEH): 0.05 ± 0.01 µM
IC50 ([2]; Table 9, established protocols, read-out: IC50 (μM) Human sEH): 0.1 ± 0.01 µM
Compound: C=CCOC1CCC(NC(=O)NC23CC4CC(CC(C4)C2)C3)CC1 (stereo not drawn) [Compound 982]

IC50 [1, 3]: 0.05 ± 0.01 µM
Compound: CCCCCCOCCCNC(=O)NC12CC3CC(CC(C3)C1)C2 [Compound 867]

IC50 [1, 4]: 0.08 ± 0.01 µM
IC50 [2, 5]: 0.12 ± 0.01 µM
Compound: CCOC(=O)c1ccc(C(C)OC(=O)CCCNC(=O)NC23CC4CC(CC(C4)C2)C3)cc1 (stereo not drawn) [Compound 948]

IC50 [1, 6]: 0.05 ± 0.01 µM
IC50 [2, 7]: 0.1 ± 0.01 µM
Compound: C#COCCOCCCCCNC(=O)NC12CC3CC(CC(C3)C1)C2 [Compound 913]

IC50 [1, 4]: 0.56 ± 0.01 µM
IC50 [2, 5]: 38 ± 0.01 µM
Compound: O=C(Cc1cccc(Cl)c1)NC1CCCCC1 [Compound 969]

IC50 [1, 4]: 0.1 ± 0.01 µM
IC50 [2, 5]: 3.7 ± 0.01 µM
Compound: O=C(Nc1ccc2ccccc2c1)NC1CCCCC1 [Compound 998]

IC50 [1, 4]: 0.05 ± 0.01 µM
IC50 [2, 5]: 0.24 ± 0.01 µM
Compound: CCCCC(CC)OCCCCCNC(=O)NC12CC3CC(CC(C3)C1)C2 (stereo not drawn) [Compound 910]

IC50 ([1]; Table 4, […] enzyme, 5 min preincubation, pH 7.4, 30° C., means ± SD, read-out: IC50 (μM) Mouse sEH): 0.05 ± 0.01 µM
IC50 ([2]; Table 4, […] enzyme, 5 min preincubation, pH 7.4, 30° C., means ± SD, read-out: IC50 (μM) Human sEH): 0.1 ± 0.01 µM
Compound: COC(=O)CCCCCCCCCCCNC(=O)NC12CC3CC(CC(C3)C1)C2 [Compound 780, 1-(1-adamantyl)-3-(11-methoxycarbonylundecyl)urea]

IC50 [1, 8]: 0.41 ± 0.05 µM
IC50 ([2]; Table 3, […] enzyme, 5 min preincubation, pH 7.4, 30° C., means ± SD, read-out: IC50 (μM) Human sEH): 2.1 ± 0.2 µM
Compound: CCCCCCC(=O)CCCNC(=O)Nc1cccc(Cl)c1 [Compound 794, 1-(3-chlorophenyl)-3-(4-oxodecyl)urea]

IC50 [1, 8]: 100 ± 10 µM
Compound: CCCCCCC(=O)NCCNC(=O)Nc1cccc(Cl)c1 [Compound 765, 1-(3-chlorophenyl)-3-(2-hexylcarbonylaminoethyl)urea]

Compound: CCN=C=NCCCN(C)C [1-ethyl-3-(3-(dimethylamino)-propyl) carbodiimide]
inhibition of sEH [1]: not inhibitors of sEH

Compound: Tyrosine
IC90 ([1]; Table 11, unpurified analytical scale reaction solutions): 2500 nM

IC90 [1, 9]: 630 ± 40 nM
IC50 [1, 10]: 0.05 ± 0.01 µM
IC90 [2, 11]: 1.8 ± 0.2 µM
IC50 [2, 12]: 0.1 ± 0.01 µM
Compound: CCOC(=O)CCCCCCCCCCCOC(=O)CCCNC(=O)NC12CC3CC(CC(C3)C1)C2 [Compound 882]

IC50 [1, 6]: 0.05 ± 0.01 µM
IC50 [1, 4]: 0.05 ± 0.01 µM
IC50 [2, 7]: 0.13 ± 0.01 µM
IC50 [2, 5]: 0.13 ± 0.01 µM
Compound: CCCC(C)COCCOCCOCCCCCNC(=O)NC12CC3CC(CC(C3)C1)C2 (stereo not drawn) [Compound 1003]

IC50 [1, 3]: 0.06 ± 0.01 µM
Compound: CCCCCCCOCCNC(=O)NC12CC3CC(CC(C3)C1)C2 [Compound 866]

IC50 [1, 4]: 0.05 ± 0.01 µM
IC50 [2, 5]: 0.1 ± 0.01 µM
Compound: C#CCCCCCCNC(=O)NC12CC3CC(CC(C3)C1)C2 [Compound 900]

IC50 [1, 4]: 8.4 ± 0.01 µM
IC50 [2, 5]: 1.9 ± 0.01 µM
Compound: CCCCC(CO)NC(=O)Nc1cccc(Cl)c1 (stereo not drawn) [Compound 978]

Compound: CCCCCOC(=O)C1CCCC(NC(=O)NC23CC4CC(CC(C4)C2)C3)C1 (stereo not drawn) [Compound 906]
IC50 [1, 4]: 0.05 ± 0.01 µM
IC50 [2]: 0.1 ± 0.01 µM

IC90 [1, 9]: 110 ± 10 nM
IC50 [1, 10]: 0.05 ± 0.01 µM
IC90 [2, 11]: 9 ± 2 µM
IC50 [2, 12]: 0.39 ± 0.01 µM
Compound: CCOC(=O)COC(=O)CCCNC(=O)NC12CC3CC(CC(C3)C1)C2 [Compound 857]

IC50 [1, 4]: 0.7 ± 0.01 µM
IC50 [2, 5]: 17 ± 0.01 µM
Compound: CCCCCOC(=O)CCCn1ccn(C23CC4CC(CC(C4)C2)C3)c1=O [Compound 958]

IC50 [2, 5]: 0.99 ± 0.01 µM
Compound: O=C(CCCCc1ccccc1)NC12CC3CC(CC(C3)C1)C2 [Compound 991]

inhibition of sEH [1]: not inhibitors of sEH
Compound: CCNC(=O)NCCCN(C)C [1-ethyl-3-(3-dimethylamino)-propyl urea]

IC50 ([1]; Table 10, unpurified reaction solutions used directly, theoretical concentration 10 mM, means ± SD of three experiments, read-out: Mouse sEH IC50): > 50 µM
Compound: N[C@@H](CCC(=O)O)C(=O)O [Glutamate]

IC50 [1, 3]: 0.05 ± 0.01 µM
Compound: CCCOCCCCCCNC(=O)NC12CC3CC(CC(C3)C1)C2 [Compound 870]
